Results on two compounds are retold here after article PMC9921851, “Synthesis and Preclinical Evaluation of Three Novel ^68Ga-Labeled Bispecific PSMA/FAP-Targeting Tracers for Prostate Cancer Imaging” (Molecules, 2023).

The IC50 is the concentration at which inhibition is half-maximal.

For one series, the target named is T1, PSMA (Homo sapiens, UniProt Q04609).
T1 construct: endogenous in cells; host or cells: LNCaP cells (ATCC via Cedarlane)
The experiment in a line: In vitro PSMA competition binding assay ([^18F]DCFPyL displacement on LNCaP cells). To be noted: radioligand [^18F]DCFPyL, n = 3. The method, then: The binding affinities of Ga-AV01017, Ga-AV01030, Ga-AV01038, Ga-HTK03041, and Ga-FAPI-04 to PSMA were measured by a cell-based binding assay using PSMA-expressing LNCaP prostate cancer cells. The nonradioactive Ga-complexed standards, except Ga-FAPI-04, inhibited the binding of [^18F]DCFPyL to LNCaP cells in a dose-dependent manner (Figure 3A).
The PSMA binding assays were conducted following previously published procedures using LNCaP cells and [^18F]DCFPyL as the radioligand [34, 42, 43]. Data analyses of IC50 were performed using the nonlinear regression algorithm of GraphPad Prism 7 (San Diego, CA, USA) software.

For series [1], the system named is FAP-expressing HEK293T:hFAP tumor xenografts. Briefly: Ex vivo biodistribution in HEK293T:hFAP tumor-bearing mice. To be noted: 1 h post injection, mean ± SD, n = 4. The method, then: Biodistribution studies were also conducted at 1 h post injection with [^68Ga]Ga-AV01017, [^68Ga]Ga-AV01030, [^68Ga]Ga-AV01038, [^68Ga]Ga-HTK03041, and [^68Ga]Ga-FAPI-04 in HEK293T:hFAP tumor-bearing mice (Figure 6 and Table S5, Supplementary Materials). Tumor uptake values for [^68Ga]Ga-AV01017, [^68Ga]Ga-AV01030, [^68Ga]Ga-AV01038, [^68Ga]Ga-HTK03041, and [^68Ga]Ga-FAPI-04 were 2.99 ± 0.37, 3.69 ± 0.81, 3.64 ± 0.83, 0.62 ± 0.19, and 12.5 ± 2.00 %ID/g, respectively. There was a very low tumor uptake in mice injected with [^68Ga]Ga-HTK03041, showing very minimal FAP expression in this tumor model. The uptake levels of these tracers on the major organs and tissues are consistent with the trends observed in the LNCaP tumor-baring mice (Figure 5 and Supplemental Table S4).
Imaging and biodistribution studies were performed using male NOD.Cg-Rag1tm1Mom Il2rgtm1Wjl/SzJ (NRG) mice following previously published procedures. The experiments were conducted according to the guidelines established by the Canadian Council on Animal Care and approved by Animal Ethics Committee of the University of British Columbia. The mice were briefly sedated by inhalation of 2.5% isoflurane in oxygen, and 100 µL LNCaP (2 × 10^5 cells) or HEK293T:hFAP (8.5 × 10^6 cells) cells were inoculated subcutaneously behind the left shoulder. When the tumor grew to 5–8 mm in diameter over 3–4 weeks and 4–5 weeks for HEK293T:hFAP and LNCaP tumors, respectively, the mice were used for PET/CT imaging and biodistribution studies.
For biodistribution studies, the mice were injected with the radiotracer (~2–4 MBq) as described above. At 1 h post injection, the mice were euthanized by CO2 inhalation. Blood was withdrawn by cardiac puncture, and organs/tissues of interest were collected, weighed, and counted using a Perkin Elmer (Waltham, MA, USA) Wizard2 2480 automatic gamma counter.

For series [2], the system named is PSMA-expressing LNCaP tumor xenografts. More on the design: method as in earlier work. To be noted: LNCaP tumor-bearing mice, 1 h post injection, reported previously, ref 4 (supplement); cited from earlier work.

T1 sequence (Q04609 whole entry): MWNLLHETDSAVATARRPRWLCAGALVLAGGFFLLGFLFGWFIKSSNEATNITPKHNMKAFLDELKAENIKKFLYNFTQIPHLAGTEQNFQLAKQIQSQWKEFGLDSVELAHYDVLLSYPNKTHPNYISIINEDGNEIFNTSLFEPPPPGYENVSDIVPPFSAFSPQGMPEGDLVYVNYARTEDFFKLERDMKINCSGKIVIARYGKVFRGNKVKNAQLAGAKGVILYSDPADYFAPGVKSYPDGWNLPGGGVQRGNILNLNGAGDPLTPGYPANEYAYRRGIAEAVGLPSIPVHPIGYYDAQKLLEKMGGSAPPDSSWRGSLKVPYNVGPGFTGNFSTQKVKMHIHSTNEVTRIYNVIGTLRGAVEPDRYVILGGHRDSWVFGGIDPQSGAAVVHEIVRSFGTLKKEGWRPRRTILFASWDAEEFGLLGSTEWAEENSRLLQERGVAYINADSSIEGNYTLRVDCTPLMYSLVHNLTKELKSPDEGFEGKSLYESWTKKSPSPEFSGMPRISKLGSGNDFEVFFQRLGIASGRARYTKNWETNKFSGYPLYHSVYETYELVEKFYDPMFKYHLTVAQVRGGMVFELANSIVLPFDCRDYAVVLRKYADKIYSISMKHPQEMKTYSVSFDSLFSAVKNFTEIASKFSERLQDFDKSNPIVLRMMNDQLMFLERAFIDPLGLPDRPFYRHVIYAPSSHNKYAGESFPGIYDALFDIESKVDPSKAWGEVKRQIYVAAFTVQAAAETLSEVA

`N#C[C@@H]1CC(F)(F)CN1C(=O)CNC(=O)c1ccnc2ccc(OCCCN3CCN(C(=O)CN4CCN(CC(=O)[O-])CCN(CC(=O)[O-])CCN(CC(=O)[O-])CC4)CC3)cc12.[Ga+3]` [Ga-FAPI-04, reference compound] returned an IC50 at PSMA greater than 1000 nM.

Consider `O=C([O-])CN1CCN(CC(=O)[O-])CCN(CC(=O)NC[C@H]2CC[C@H](C(=O)N[C@@H](Cc3c4ccccc4cc4ccccc34)C(=O)NCCCC[C@H](NC(=O)N[C@@H](CCC(=O)O)C(=O)O)C(=O)O)CC2)CCN(CC(=O)[O-])CC1.[68Ga+3]` [[^68Ga]Ga-HTK03041, reference compound], for which, in series [1], the Adrenal glands uptake is on record as 4.18 ± 0.48 %ID/g, the Blood uptake is 0.71 ± 0.07 %ID/g, the Bone uptake is 0.42 ± 0.11 %ID/g and the Brain uptake was 0.03 ± 0.00 %ID/g. Further, in series [1], the Fat uptake amounted to 0.55 ± 0.12 %ID/g, the “HEK293T:hFAP tumor uptake” value was 0.62 ± 0.19 %ID/g, the Heart uptake amounted to 0.98 ± 0.07 %ID/g and the Kidneys uptake came out at 68.4 ± 19.2 %ID/g. Besides, in series [1], the Lacrimal gland uptake came out at 0.25 ± 0.33 %ID/g, the “Large Intestine uptake” value is reported as 0.43 ± 0.04 %ID/g, the Liver uptake is listed as 0.72 ± 0.06 %ID/g and the Lungs uptake is recorded as 2.43 ± 0.08 %ID/g. In series [1], the Muscle uptake is on record as 0.47 ± 0.03 %ID/g, the Pancreas uptake came to 0.71 ± 0.07 %ID/g, the Salivary glands uptake worked out at 2.29 ± 0.16 %ID/g and the Seminal vesicle uptake is listed as 0.32 ± 0.03 %ID/g. For the same compound, in series [1], the “Small Intestine uptake” value is on record as 0.71 ± 0.01 %ID/g, the Spleen uptake is 8.09 ± 2.37 %ID/g, the Stomach uptake came to 0.22 ± 0.04 %ID/g and the Testes uptake was 0.60 ± 0.41 %ID/g. Moreover, in series [1], the Thyroid uptake is reported as 1.38 ± 0.10 %ID/g, the Tumor/blood uptake ratio came to 0.83 ± 0.54, the Tumor/bone uptake ratio is listed as 1.39 ± 0.58 and the Tumor/kidney uptake ratio is recorded as 0.01 ± 0.01. In addition, in series [1], the Tumor/muscle uptake ratio came to 1.22 ± 0.73. Also, in series [2], the Blood uptake is 1.43 ± 0.30 %ID/g, the Bone uptake is recorded as 1.29 ± 0.45 %ID/g, the Brain uptake is on record as 0.10 ± 0.05 %ID/g and the Fat uptake is on record as 2.06 ± 0.59 %ID/g. Further, in series [2], the Heart uptake is 1.82 ± 0.62 %ID/g, the Kidneys uptake is on record as 170 ± 26.4 %ID/g, the LNCaP tumor uptake is 23.1 ± 6.11 %ID/g and the Liver uptake is 1.38 ± 0.25 %ID/g. Moreover, in series [2], the Muscle uptake is given as 0.75 ± 0.09 %ID/g, the Pancreas uptake is 1.47 ± 0.16 %ID/g, the “Small Intestine uptake” value is recorded as 1.14 ± 0.18 %ID/g and the Spleen uptake is on record as 8.95 ± 3.22 %ID/g. In series [2], the Stomach uptake is 0.41 ± 0.11 %ID/g, the Testes uptake was 1.34 ± 0.22 %ID/g, the Thyroid uptake is recorded as 2.48 ± 0.44 %ID/g and the Tumor/blood uptake ratio is 17.3 ± 7.24. In series [2], the Tumor/bone uptake ratio is on record as 20.1 ± 9.48, the Tumor/kidney uptake ratio is reported as 0.14 ± 0.04 and the Tumor/muscle uptake ratio was 31.6 ± 12.1.
